Test results published in patent US12077503B2, “Substituted cyclic amides and their use as herbicides” (FMC CORPORATION, priority 2015, dated 2024).

Experiments:
Assay type in all cases: in vivo
[1] = tested on: giant foxtail (Setaria faberii); assay: Test A preemergence
How it was run: (§1)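 Treatment is preemergence as a directed soil spray after planting, or postemergence at the one- to two-leaf stage, with test chemical in a non-phytotoxic solvent mixture plus surfactant. Plants stay in the greenhouse about 10 d before visual injury scoring on a 0 to 100 scale versus untreated controls.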

Kochia (Kochia scoparia) [2] = assay: Test A preemergence
How it was run: as §1

[3] = tested on: barnyardgrass (Echinochloa crus-galli); assay: Test A preemergence
How it was run: as §1

[4] = tested on: pigweed (Amaranthus retroflexus); assay: Test A preemergence; details: for Pigweed plant response rating (0 to 100 scale, 0 is no effect, 100 is complete control): Preemergence
[5] = tested on: ryegrass, Italian (Italian ryegrass, Lolium multiflorum); assay: Test A preemergence
How it was run: as §1

[6] = tested on: ragweed (common ragweed, Ambrosia elatior); assay: Test A preemergence
How it was run: as §1

[7] = tested on: giant foxtail (Setaria faberii); assay: Test A postemergence
How it was run: as §1

Kochia (Kochia scoparia) [8] = assay: Test A postemergence
How it was run: as §1

[9] = tested on: barnyardgrass (Echinochloa crus-galli); assay: Test A postemergence
How it was run: as §1

[10] = tested on: blackgrass (Alopecurus myosuroides); assay: Test A postemergence; details: for Plant response rating, Blackgrass: 500 g ai/ha
How it was run: as §1

[11] = tested on: pigweed (Amaranthus retroflexus); assay: Test A postemergence; details: for Plant response rating, Pigweed: 500 g ai/ha
How it was run: as §1

[12] = tested on: ryegrass, Italian (Italian ryegrass, Lolium multiflorum); assay: Test A postemergence
How it was run: as §1

[13] = tested on: ragweed (common ragweed, Ambrosia elatior); assay: Test A postemergence; details: for Plant response rating, Ragweed: 500 g ai/ha
How it was run: as §1

corn (Zea mays) = assay: Test A postemergence
How it was run: as §1

[14] = tested on: wheat (Triticum aestivum); assay: Test A postemergence
How it was run: as §1

[15] = tested on: Galium (catchweed bedstraw, Galium aparine); assay: Test A postemergence
How it was run: as §1

[16] = tested on: ducksalad (Heteranthera limosa); assay: Test B flooded paddy test; details: 250 g ai/ha, Flood, 0 to 100 scale where 0 is no effect and 100 is complete control
How it was run: (§2)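 Compound goes directly into floodwater once pots are flooded 3 cm above soil, targeting plants at two leaves; the water depth is then held for the test duration. Plants sit 13–15 d in a greenhouse and are rated visually, 100 denoting complete control.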

[17] = tested on: barnyardgrass (Echinochloa crus-galli); assay: Test B flooded paddy test; details: 250 g ai/ha, Flood, 0 to 100 scale where 0 is no effect and 100 is complete control
How it was run: as §2

rice (Oryra sativa) = assay: Test B flooded paddy test; details: 250 g ai/ha, Flood, 0 to 100 scale where 0 is no effect and 100 is complete control
How it was run: as §2

[18] = tested on: sedge, umbrella (small-flower umbrella sedge, Cyperus difformis); assay: Test B flooded paddy test; details: 250 g ai/ha, Flood, 0 to 100 scale where 0 is no effect and 100 is complete control
How it was run: as §2

[19] = 500 g ai/ha, preemergence, visual injury rating about 10 d after treatment, 0 to 100 scale (0 no effect, 100 complete control)
[20] = 125 g ai/ha, Postemergence, visual injury after approximately 10 d, 0 to 100 scale where 0 is no effect and 100 is complete control
[21] = 500 g ai/ha, postemergence, visual injury, 0 to 100 scale (0 no effect, 100 complete control), approx. 10 d
[22] = postemergence, visual injury, 0 to 100 scale (0 no effect, 100 complete control), approx. 10 d
[23] = 125 g ai/ha, preemergence, 0 to 100 scale (0 no effect, 100 complete control)
[24] = Preemergence, 500 g ai/ha, visual injury approx. 10 d
[25] = 125 g ai/ha, postemergence, visual injury rating on 0 to 100 scale (0 no effect, 100 complete control), approx. 10 d
[26] = 500 g ai/ha, postemergence, 0 to 100 scale, 0 no effect, 100 complete control
[27] = postemergence, 0 to 100 scale, 0 no effect, 100 complete control

Cc1ccc([C@H]2CN(C)C(=O)[C@@H]2C(=O)Nc2ccccc2[S+](C)[O-])cc1Cl (single isomer, unassigned) [Compound 1016]
pest or weed control at 125 g/ha ([1]; Setaria faberi, pre-emergence, 240 h, 125 g ai/ha, Preemergence, visual injury rating after approximately 10 d, read-out: Foxtail, Giant plant response rating (0 to 100 scale, 0 is no effect, 100 is complete control)): 90% | pest or weed control at 500 g/ha ([1]; Setaria faberi, pre-emergence, 240 h, 500 g ai/ha, preemergence, visual injury rating about 10 d after treatment, 0 to 100 scale (0 no effect, 100 complete control), read-out: Foxtail, Giant plant response rating): 90% | Kochia plant response rating (Kochia (Kochia scoparia) [2]; [19]): 0 | pest or weed control at 125 g/ha (Kochia (Kochia scoparia) [2]; Bassia scoparia, pre-emergence, 240 h, 125 g ai/ha, Preemergence, visual injury rating after approximately 10 d, read-out: Kochia plant response rating (0 to 100 scale, 0 is no effect, 100 is complete control)): 0% | pest or weed control at 125 g/ha ([3]; Echinochloa crus-galli, pre-emergence, 240 h, 125 g ai/ha, Preemergence, visual injury rating after approximately 10 d, read-out: Barnyardgrass plant response rating (0 to 100 scale, 0 is no effect, 100 is complete control)): 90% | pest or weed control at 500 g/ha ([3]; Echinochloa crus-galli, pre-emergence, 240 h, 500 g ai/ha, preemergence, visual injury rating about 10 d after treatment, 0 to 100 scale (0 no effect, 100 complete control), read-out: Barnyardgrass plant response rating): 90% | Pigweed plant response rating (0 to 100 scale, 0 is no effect, 100 is complete control) ([4]; 125 g ai/ha, visual injury rating after approximately 10 d): 0 | Pigweed plant response rating [4, 19]: 0 | Ryegrass, Italian plant response rating [5, 19]: 0 | pest or weed control at 125 g/ha ([5]; Lolium multiflorum, pre-emergence, 240 h, 125 g ai/ha, Preemergence, visual injury rating after approximately 10 d, read-out: Ryegrass, Italian plant response rating (0 to 100 scale, 0 is no effect, 100 is complete control)): 0% | Ragweed plant response rating [6, 19]: 0 | pest or weed control at 125 g/ha ([6]; Ambrosia artemisiifolia, pre-emergence, 240 h, 125 g ai/ha, Preemergence, visual injury rating after approximately 10 d, read-out: Ragweed plant response rating (0 to 100 scale, 0 is no effect, 100 is complete control)): 0% | Plant response rating, Foxtail, Giant [7, 20]: 30 | pest or weed control at 500 g/ha ([7]; Setaria faberi, post-emergence, 240 h, 500 g ai/ha, postemergence, visual injury, 0 to 100 scale (0 no effect, 100 complete control), approx. 10 d, read-out: Plant response rating, Foxtail, Giant): 80% | Plant response rating, Kochia (Kochia (Kochia scoparia) [8]; [20]): 0 | Plant response rating, Kochia (Kochia (Kochia scoparia) [8]; [21]): 0 | Plant response rating, Barnyardgrass [9, 20]: 50 | pest or weed control at 500 g/ha ([9]; Echinochloa crus-galli, post-emergence, 240 h, 500 g ai/ha, postemergence, visual injury, 0 to 100 scale (0 no effect, 100 complete control), approx. 10 d, read-out: Plant response rating, Barnyardgrass): 90% | Plant response rating, Blackgrass [10, 22]: 0 | pest or weed control at 125 g/ha ([10]; Alopecurus myosuroides, post-emergence, 240 h, 125 g ai/ha, Postemergence, visual injury after approximately 10 d, 0 to 100 scale where 0 is no effect and 100 is complete control, read-out: Plant response rating, Blackgrass): 0% | Plant response rating, Pigweed [11, 22]: 0 | pest or weed control at 125 g/ha ([11]; Amaranthus retroflexus, post-emergence, 240 h, 125 g ai/ha, Postemergence, visual injury after approximately 10 d, 0 to 100 scale where 0 is no effect and 100 is complete control, read-out: Plant response rating, Pigweed): 0% | Plant response rating, Ryegrass, Italian [12, 20]: 0 | Plant response rating, Ryegrass, Italian [12, 21]: 0 | Plant response rating, Ragweed [13, 22]: 0 | pest or weed control at 125 g/ha ([13]; Ambrosia artemisiifolia, post-emergence, 240 h, 125 g ai/ha, Postemergence, visual injury after approximately 10 d, 0 to 100 scale where 0 is no effect and 100 is complete control, read-out: Plant response rating, Ragweed): 0% | Plant response rating, Corn (corn (Zea mays); [20]): 0 | Plant response rating, Corn (corn (Zea mays); [21]): 0 | Plant response rating, Wheat [14, 20]: 0 | Plant response rating, Wheat [14, 21]: 0 | Plant response rating, Galium [15, 20]: 0 | Plant response rating, Galium [15, 21]: 0 | Ducksalad plant response rating [16]: 0 | Barnyardgrass plant response rating [17]: 0 | pest or weed control at 250 g/ha (rice (Oryra sativa); Oryza sativa, read-out: Rice plant response rating): 30% | pest or weed control at 250 g/ha ([18]; Cyperus difformis, read-out: Sedge, Umbrella plant response rating): 0%

Cc1cc(C2CNC(=O)C2C(=O)Nc2cccc(F)c2F)ccc1F (stereo not drawn) [Compound 400]
Plant response rating, Foxtail, Giant [1, 23]: 90 | Foxtail, Giant plant response rating (0 to 100 scale, 0 is no effect, 100 is complete control) [1, 24]: 100 | Plant response rating, Kochia (Kochia (Kochia scoparia) [2]; [23]): 60 | Kochia plant response rating (0 to 100 scale, 0 is no effect, 100 is complete control) (Kochia (Kochia scoparia) [2]; [24]): 80 | Plant response rating, Barnyardgrass [3, 23]: 90 | Barnyardgrass plant response rating (0 to 100 scale, 0 is no effect, 100 is complete control) [3, 24]: 100 | Plant response rating, Pigweed [4, 23]: 60 | Pigweed plant response rating (0 to 100 scale, 0 is no effect, 100 is complete control) ([4]; 500 g ai/ha, visual injury approx. 10 d): 60 | Plant response rating, Ryegrass, Italian [5, 23]: 30 | Ryegrass, Italian plant response rating (0 to 100 scale, 0 is no effect, 100 is complete control) [5, 24]: 40 | Plant response rating, Ragweed [6, 23]: 70 | Ragweed plant response rating (0 to 100 scale, 0 is no effect, 100 is complete control) [6, 24]: 90 | Foxtail, Giant plant response rating [7, 25]: 50 | Plant response rating, Foxtail, Giant [7, 26]: 70 | Kochia plant response rating (Kochia (Kochia scoparia) [8]; [25]): 60 | Plant response rating, Kochia (Kochia (Kochia scoparia) [8]; [26]): 70 | Barnyardgrass plant response rating [9, 25]: 90 | Plant response rating, Barnyardgrass [9, 26]: 90 | Blackgrass plant response rating [10, 25]: 60 | Plant response rating, Blackgrass [10, 27]: 60 | Pigweed plant response rating [11, 25]: 30 | Plant response rating, Pigweed [11, 27]: 50 | Ryegrass, Italian plant response rating [12, 25]: 20 | Plant response rating, Ryegrass, Italian [12, 26]: 90 | Ragweed plant response rating [13, 25]: 40 | Plant response rating, Ragweed [13, 27]: 50 | Corn plant response rating (corn (Zea mays); [25]): 20 | Plant response rating, Corn (corn (Zea mays); [26]): 80 | Wheat plant response rating [14, 25]: 30 | Plant response rating, Wheat [14, 26]: 70 | Galium plant response rating [15, 25]: 40 | Plant response rating, Galium [15, 26]: 60 | Plant response rating, Ducksalad ([16]; 13 to 15 d): 100 | Plant response rating, Barnyardgrass ([17]; 13 to 15 d): 65 | Plant response rating, Rice (rice (Oryra sativa); 13 to 15 d): 20 | Plant response rating, Sedge, Umbrella ([18]; 13 to 15 d): 0
